Experimental data from patent US6949566B2, “Thiazole and oxazole derivatives” (Shionogi & Co. Ltd., priority 2000, dated 2005).

What was measured:
[1] = target: T1, MMP-12 (Homo sapiens, UniProt P39900); experiment: Assay for inhibitory activities on MMPs (fluorogenic peptide substrate), MMP-12; assay type: biochemical; settings: catalytic domain 100Phe-263Gly; substrate MOCAc-Pro-Leu-Gly-Leu-A2Pr(DNP)-Ala-Arg-NH2
T1 construct: catalytic domain(^100Phe˜^263Gly) was amplified with RT-PCR; His-tag; enterokinase digestion-site; made in house; host or cells: Escherichia coli
Method: (§1) In regard to MMP-12, catalytic domain(^100Phe˜^263Gly) was amplified with RT-PCR from Human Placenta Total RNA. This was cloned in Escherichia. coli expression vector pTrc99AHE inserted with His-tag sequence and enterokinase digestion-site, induced and expressed by IPTG (Isopropyl-β-D-thiogalactopyranoside) and expressed in a insoluble fraction. Isolation of MMP-12 from an insoluble fraction was carried out by dissolving in modifier (6M urea) by a usual method and purification with metal chelate chromatography (Ni Chelateing Sepharose). And then removing modifier (6M urea) with dialysis and refolding of the enzyme spontaneously gave activated MMP-12.
(§2) The enzymatic activity on MMPs was analyzed by the method described in “C. Graham Knight, Frances Willenbrock and Gillian Murphy: A novel coumarin-labelled peptide for sensitive continuous assays of the matrix metalloproteinases: FEBS LETT., 296, (1992), 263-266”. The substrate MOCAc-Pro-Leu-Gly-Leu-A2Pr(DNP)-Ala-Arg-NH2 was purchased from Peptide Institute, Inc., Osaka, Japan. The measurement of the inhibitory activities (IC50) was carried out by the following four methods;
(§3) (A) Reaction with substrate, enzyme (MMPs) and inhibitor
(§4) (B) Reaction with substrate and inhibitor, without enzyme
(§5) (C) Reaction with substrate and enzyme (MMPs), without inhibitor
(§6) (D) Reaction with substrate only
(§7) IC50 values were calculated by using the following formula and each fluorescence values of above four methods (A to D). % inhibition={1−(A−B)/(C−D)}×100 IC50 means the concentration required to inhibit 50% of the enzyme activity.

[2] = target: T2, MMP-2 (Homo sapiens, UniProt P08253); experiment: Assay for inhibitory activities on MMPs (fluorogenic peptide substrate), MMP-2; assay type: biochemical; settings: purchased MMP-2; substrate MOCAc-Pro-Leu-Gly-Leu-A2Pr(DNP)-Ala-Arg-NH2
T2 construct: purchased Calbiochem-Novabiochem International, Inc
T2 sequence (P08253 110-660): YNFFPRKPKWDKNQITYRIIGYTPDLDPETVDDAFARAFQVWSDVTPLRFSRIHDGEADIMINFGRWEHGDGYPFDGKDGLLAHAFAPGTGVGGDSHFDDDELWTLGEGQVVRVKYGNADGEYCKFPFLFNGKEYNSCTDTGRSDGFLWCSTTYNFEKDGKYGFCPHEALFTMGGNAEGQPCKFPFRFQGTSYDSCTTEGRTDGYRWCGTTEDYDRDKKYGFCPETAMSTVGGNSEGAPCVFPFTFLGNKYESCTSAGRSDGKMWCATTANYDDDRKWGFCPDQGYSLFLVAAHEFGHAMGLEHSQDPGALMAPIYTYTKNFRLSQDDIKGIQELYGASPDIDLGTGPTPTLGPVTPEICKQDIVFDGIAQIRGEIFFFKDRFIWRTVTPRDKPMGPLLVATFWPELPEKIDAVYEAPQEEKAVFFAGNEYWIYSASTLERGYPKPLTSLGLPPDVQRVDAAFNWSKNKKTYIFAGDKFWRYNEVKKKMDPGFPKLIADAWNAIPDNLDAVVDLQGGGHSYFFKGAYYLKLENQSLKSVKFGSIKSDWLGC
Method: MMP-2 was purchased from Calbiochem-Novabiochem International, Inc.
as §2, §3, §4, §5, §6, §7

[3] = target: T3, MMP-8 (Homo sapiens, UniProt P22894); experiment: Assay for inhibitory activities on MMPs (fluorogenic peptide substrate), MMP-8; assay type: biochemical; settings: catalytic domain 99Phe-262Gly; substrate MOCAc-Pro-Leu-Gly-Leu-A2Pr(DNP)-Ala-Arg-NH2
T3 construct: catalytic domain (^99Phe˜^262Gly) was amplified with PCR; His-tag; enterokinase digestion-site; made in house; host or cells: Escherichia coli
Excerpt: In regard to MMP-8, catalytic domain (^99Phe˜^262Gly) was amplified with PCR using commercial available Human Bone Marrow cDNA. This was cloned in Escherichia. coli expression vector pTrc99AHE inserted with His-tag sequence and enterokinase digestion-site, induced and expressed by IPTG (Isopropyl-β-D-thiogalactopyranoside) and expressed in a insoluble fraction (Thau F. Ho, M. Walid Qoronfleh, Robert C. Wahl, Trica A. Pulvino, Karen J. Vavra, Joe Falvo, Tracey M. Banks, Patricia G. Brake and Richard B. Ciccarelli: Gene expression, purification and characterization of recombinant human neutrophil collagenase. Gene 146, (1994) 297-301, Prepared by the a improved method of this material). Isolation of MMP-8 from an insoluble fraction was carried out by dissolving in modifier (6M urea) by a usual method and purification with metal chelate chromatography. And then removing modifier (6M urea) with dialysis and refolding of the enzyme spontaneously gave activated MMP-8.
as §2, §3, §4, §5, §6, §7

[4] = target: T4, MMP-9 (Homo sapiens, UniProt P14780); experiment: Assay for inhibitory activities on MMPs (fluorogenic peptide substrate), MMP-9; assay type: biochemical; settings: MMP-9 from HT1080 cells, activated by TPCK-Trypsin; substrate MOCAc-Pro-Leu-Gly-Leu-A2Pr(DNP)-Ala-Arg-NH2
T4 construct: endogenous in cells; host or cells: HT1080 human fibrosarcoma cells, TPA-stimulated; enzyme purified from conditioned medium
Excerpt: MMP-9 was isolated and purified by procedures described in as follows: Yasunori Okada, Yukio Gonoji, Katsumi Naka, Katsuro Tomita, Isao Nakanishi, Kazushi Iwata, Kyoko Yamashita, and Taro Hayakawa: Matrix metalloproteinase 9 (92-kDa gelatinase/type IV collagenase) from HT1080 human fibrosarcoma cells. Purification and activation of the precursor and enzymic properties J. Biol. Chem., 1992, 267 21712-21719, in combination with others: 1)Yasunori Okada, Tatsuhisa Morodomi, Jan J, Enghild, ko Suzuki, Atsushi Yasui, Isao Nakanishi, Guy Salvesen and Hideaki Nagase: Matrix metalloproteinase 2 from human rheumatoid synovial fibroblasts. Purification and activation of the precursor and enzymic properties. Eur. J. Biochem. 1990, 194 721-730; 2)Robin V Ward, Rosalind M Hembry, John J Reynolds and Gillian Murphy: The purification of tissue inhibitor of metalloproteinase-2 from its 72 kDa progelatinase complex. Biochem. J. 1991 278 179-187. In detail, human fibrosarcoma ATCC HT1080 cell line was cultured to confluent in Dulbecco's Modified Medium (DMEM) containing 10% fetal-calf serum at 37° C. for 48 hours. Subsequently, the medium of confluent culture was changed to serum-free DMEM medium. To obtain MMP-9, Phorbol-12-myristate-13-acetate (TPA) must be added to this serum-free DMEM medium at a concentration of 50 ng/ml. The TPA treated medium was centrifuged at 3000 rpm for 15 min and the supernatant was concentrated to 450 ml by a Toyo-Roshi UP-20 apparatus with an ultrafiltration membrane. Then, proMMP-9 in this concentrated solution was purified by using columns of Gelatin-Sepharose and Concanavalin A-Sepharose. The pool containing proMMP-9 was dialyzed, concentrated (Toyo-Roshi UP-20) and applied to columns of Sephacryl S-200 and Green A matrix for the separation from TIMPs. The obtained proMMP-9 fraction was activated by TPCK-Trypsin (Final conc. 3 μg/501 μl React Mix.).
as §2, §3, §4, §5, §6, §7

[5] = target: T5, MMP-13 (Homo sapiens, UniProt P45452); experiment: Assay for inhibitory activities on MMPs (fluorogenic peptide substrate), MMP-13; assay type: biochemical; settings: catalytic domain 104Tyr-267Gly; substrate MOCAc-Pro-Leu-Gly-Leu-A2Pr(DNP)-Ala-Arg-NH2
T5 construct: catalytic domain (^104Tyr˜^267Gly) was amplified with RT-PCR; His-tag; enterokinase digestion-site; made in house; host or cells: Escherichia coli
Method: as §1, with “MMP-13, mRNA was prepared from carcinoma cell SW1353 derived from human cartilage stimulate by IL-1, TNF and” for “MMP-12,”, “domain (^104Tyr˜^267Gly)” for “domain(^100Phe˜^263Gly)”, “RT-PCR.” for “RT-PCR from Human Placenta Total RNA.”, “MMP-13” for “MMP-12”, “dialyze” for “dialysis”, “MMP-13.” for “MMP-12.”
as §2, §3, §4, §5, §6, §7

T3 sequence (P22894 99-262): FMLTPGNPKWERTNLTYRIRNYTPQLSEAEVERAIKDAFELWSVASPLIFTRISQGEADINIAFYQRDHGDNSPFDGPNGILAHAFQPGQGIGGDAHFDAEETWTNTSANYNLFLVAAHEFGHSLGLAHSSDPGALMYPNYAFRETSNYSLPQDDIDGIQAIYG
T4 sequence (P14780 107-707 limits assumed): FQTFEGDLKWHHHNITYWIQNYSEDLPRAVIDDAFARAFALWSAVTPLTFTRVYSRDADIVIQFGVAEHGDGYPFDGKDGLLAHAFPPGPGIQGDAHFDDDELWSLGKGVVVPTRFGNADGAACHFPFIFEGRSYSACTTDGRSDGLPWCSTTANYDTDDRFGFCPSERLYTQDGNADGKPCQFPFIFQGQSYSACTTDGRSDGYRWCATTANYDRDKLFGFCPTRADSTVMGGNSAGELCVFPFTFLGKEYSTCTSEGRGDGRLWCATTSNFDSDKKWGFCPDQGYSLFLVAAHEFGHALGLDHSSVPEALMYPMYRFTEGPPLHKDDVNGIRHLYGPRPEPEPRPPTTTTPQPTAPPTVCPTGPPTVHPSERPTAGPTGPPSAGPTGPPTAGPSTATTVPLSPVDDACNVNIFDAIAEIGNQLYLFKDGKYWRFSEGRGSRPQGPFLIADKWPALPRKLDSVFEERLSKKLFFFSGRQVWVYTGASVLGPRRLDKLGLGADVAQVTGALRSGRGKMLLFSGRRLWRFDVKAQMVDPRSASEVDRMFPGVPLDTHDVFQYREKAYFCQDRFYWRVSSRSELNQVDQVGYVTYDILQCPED
T1 sequence (P39900 100-263): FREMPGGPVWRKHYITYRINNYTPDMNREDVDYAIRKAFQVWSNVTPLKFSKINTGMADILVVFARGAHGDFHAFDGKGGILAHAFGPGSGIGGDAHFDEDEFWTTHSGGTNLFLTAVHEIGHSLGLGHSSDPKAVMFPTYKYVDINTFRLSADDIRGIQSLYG

| Structure (SMILES) | melting point | IC50 [1] | IC50 [2] | IC50 [3] | IC50 [4] | IC50 [5] |
| --- | --- | --- | --- | --- | --- | --- |
| O=C(O)[C@@H](Cc1ccccc1)NS(=O)(=O)c1ccc(-c2ncc(-c3ccc4ccccc4c3)o2)cc1 [Compound A-1] | 243 to 245 °C | 1.88 nM | 9.31 nM | 230 nM | 212 nM | 15 nM |
| COc1ccc(-c2cnc(-c3ccc(S(=O)(=O)N[C@H](Cc4ccccc4)C(=O)O)cc3)s2)cc1 [Compound B-1] | 222 to 223 °C | 3.55 nM | 1.29 nM | 28.2 nM | 43.8 nM | 2.96 nM |
| COc1ccc(-c2cnc(-c3ccc(S(=O)(=O)N[C@H](CC(C)C)C(=O)O)cc3)s2)cc1 [Compound B-34] |  | 3.35 nM | 1.63 nM | 24.9 nM | 53.6 nM | 6.82 nM |
| O=C(O)C[C@@H](NS(=O)(=O)c1ccc(-c2ncc(-c3ccc(Cl)cc3)s2)cc1)C(=O)O [Compound B-38] |  | 2.54 nM | 2.14 nM | 104 nM | 11.6 nM | 7.43 nM |
| CSCC[C@@H](NS(=O)(=O)c1ccc(-c2ncc(-c3ccccc3)s2)cc1)C(=O)O [Compound B-45] |  | 2.66 nM | 2.15 nM | 29 nM | 26.3 nM | 17.5 nM |
| CSCC[C@@H](NS(=O)(=O)c1ccc(-c2ncc(-c3ccc(Cl)cc3)s2)cc1)C(=O)O [Compound B-46] |  | 1.08 nM | 1.17 nM | 57 nM | 24 nM | 11 nM |
| O=C(O)[C@@H](Cc1c[nH]c2ccccc12)NS(=O)(=O)c1ccc(-c2ncc(-c3ccc(Cl)cc3)s2)cc1 [Compound B-51] |  | 0.761 nM | 0.276 nM | 66 nM | 4.24 nM | 2.66 nM |
| O=C(O)CNS(=O)(=O)c1ccc(-c2ncc(-c3ccc(Cl)cc3)s2)cc1 [Compound B-52] |  | 5.55 nM | 2.5 nM | 453 nM | 34.7 nM | 29.5 nM |
| C[C@@H](NS(=O)(=O)c1ccc(-c2ncc(-c3ccc4ccccc4c3)s2)cc1)C(=O)O [Compound B-53] |  | 2.54 nM | 2.41 nM | 373 nM | 173 nM | 12.4 nM |
